Results reported in ChEMBL document CHEMBL2074410, “Chelerythrine stimulates GSH transport by rat Mrp2 (Abcc2) expressed in canine kidney cells” (Am J Physiol Gastrointest Liver Physiol, 2003).

Molecular target: ATP-binding cassette sub-family C member 2 (Rattus norvegicus, UniProt Q63120)
Assay: TP_TRANSPORTER: transcellular transport in MDCKII(+GSH)
Format: functional, cell-based
Conditions: dog, mdck-ii

Chain of ATP-binding cassette sub-family C member 2 (Q63120 whole entry): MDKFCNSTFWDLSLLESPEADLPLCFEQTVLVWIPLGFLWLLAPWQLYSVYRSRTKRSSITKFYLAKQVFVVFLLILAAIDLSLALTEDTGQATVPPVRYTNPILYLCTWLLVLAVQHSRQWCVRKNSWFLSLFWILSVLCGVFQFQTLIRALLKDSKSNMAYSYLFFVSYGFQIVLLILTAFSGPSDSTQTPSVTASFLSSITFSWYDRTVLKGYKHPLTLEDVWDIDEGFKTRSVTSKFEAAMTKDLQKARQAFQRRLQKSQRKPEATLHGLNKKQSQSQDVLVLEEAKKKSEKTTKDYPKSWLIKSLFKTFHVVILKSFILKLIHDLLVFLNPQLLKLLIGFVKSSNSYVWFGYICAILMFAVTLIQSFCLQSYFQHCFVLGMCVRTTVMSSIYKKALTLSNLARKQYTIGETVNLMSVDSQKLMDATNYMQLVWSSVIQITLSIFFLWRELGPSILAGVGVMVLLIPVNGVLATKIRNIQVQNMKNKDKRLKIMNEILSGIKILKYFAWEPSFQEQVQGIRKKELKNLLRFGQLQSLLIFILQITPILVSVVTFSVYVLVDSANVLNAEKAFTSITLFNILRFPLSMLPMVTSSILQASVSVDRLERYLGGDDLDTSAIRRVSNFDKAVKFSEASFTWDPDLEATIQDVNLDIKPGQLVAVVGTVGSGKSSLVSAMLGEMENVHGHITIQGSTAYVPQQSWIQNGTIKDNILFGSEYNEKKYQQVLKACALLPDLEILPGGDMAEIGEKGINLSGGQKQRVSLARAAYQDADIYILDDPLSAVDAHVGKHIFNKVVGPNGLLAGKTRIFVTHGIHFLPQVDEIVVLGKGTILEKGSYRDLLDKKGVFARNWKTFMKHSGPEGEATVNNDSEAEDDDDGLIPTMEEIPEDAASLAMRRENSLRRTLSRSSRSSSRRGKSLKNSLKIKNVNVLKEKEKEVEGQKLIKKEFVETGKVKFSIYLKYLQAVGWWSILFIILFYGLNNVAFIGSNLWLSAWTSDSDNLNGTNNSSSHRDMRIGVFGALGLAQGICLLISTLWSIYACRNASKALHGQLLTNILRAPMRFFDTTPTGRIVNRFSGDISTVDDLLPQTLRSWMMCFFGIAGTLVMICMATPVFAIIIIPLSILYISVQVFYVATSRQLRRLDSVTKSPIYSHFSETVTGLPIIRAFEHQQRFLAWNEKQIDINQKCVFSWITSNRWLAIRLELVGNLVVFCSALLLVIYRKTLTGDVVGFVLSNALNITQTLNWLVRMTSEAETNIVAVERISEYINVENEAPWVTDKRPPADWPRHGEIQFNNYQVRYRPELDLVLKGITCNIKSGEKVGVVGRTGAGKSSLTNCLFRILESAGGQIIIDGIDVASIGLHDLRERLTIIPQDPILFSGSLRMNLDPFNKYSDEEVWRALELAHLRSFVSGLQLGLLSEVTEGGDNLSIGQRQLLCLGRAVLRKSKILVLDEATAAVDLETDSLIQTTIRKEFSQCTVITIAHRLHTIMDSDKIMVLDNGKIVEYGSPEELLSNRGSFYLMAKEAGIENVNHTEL

SMILES: COc1ccc2c(c[n+](C)c3c4cc5c(cc4ccc23)OCO5)c1OC [CHELERYTHRINE]
- Activity: substrate []
